{"source": "patent US20260174720A1", "about": "“NERVONIC ACID COMPOSITION FOR IMPROVING MEMORY-BASED LEARNING FUNCTION AND A PREPARATION METHOD THEREOF” (Guangzhou Decade Nutrition Technology Co., Ltd., priority 2024, published 2026)", "origin": "cited, not measured here"}
{"smiles": "CCCCCCCC/C=C\\CCCCCCCCCCCCCC(=O)O", "note": "[Nervonic acid, cis-15-Tetracosenic Acid]", "values": [{"measurement": "solubility in alcohols such as methanol, ethanol", "result": "soluble in alcohols"}, {"measurement": "solubility in water", "setting": "room temperature", "result": "insoluble in water"}]}
